{
  "source": "ChEMBL document CHEMBL2073888",
  "about": "“Dehydrothyrsiferol does not modulate multidrug resistance-associated protein 1 resistance: a functional screening system for MRP1 substrates” (Int J Mol Med, 2002)",
  "key": {"[1]": {"biological_target": "Multidrug resistance-associated protein 1 (Homo sapiens, UniProt P33527)", "sequence (P33527 whole entry)": "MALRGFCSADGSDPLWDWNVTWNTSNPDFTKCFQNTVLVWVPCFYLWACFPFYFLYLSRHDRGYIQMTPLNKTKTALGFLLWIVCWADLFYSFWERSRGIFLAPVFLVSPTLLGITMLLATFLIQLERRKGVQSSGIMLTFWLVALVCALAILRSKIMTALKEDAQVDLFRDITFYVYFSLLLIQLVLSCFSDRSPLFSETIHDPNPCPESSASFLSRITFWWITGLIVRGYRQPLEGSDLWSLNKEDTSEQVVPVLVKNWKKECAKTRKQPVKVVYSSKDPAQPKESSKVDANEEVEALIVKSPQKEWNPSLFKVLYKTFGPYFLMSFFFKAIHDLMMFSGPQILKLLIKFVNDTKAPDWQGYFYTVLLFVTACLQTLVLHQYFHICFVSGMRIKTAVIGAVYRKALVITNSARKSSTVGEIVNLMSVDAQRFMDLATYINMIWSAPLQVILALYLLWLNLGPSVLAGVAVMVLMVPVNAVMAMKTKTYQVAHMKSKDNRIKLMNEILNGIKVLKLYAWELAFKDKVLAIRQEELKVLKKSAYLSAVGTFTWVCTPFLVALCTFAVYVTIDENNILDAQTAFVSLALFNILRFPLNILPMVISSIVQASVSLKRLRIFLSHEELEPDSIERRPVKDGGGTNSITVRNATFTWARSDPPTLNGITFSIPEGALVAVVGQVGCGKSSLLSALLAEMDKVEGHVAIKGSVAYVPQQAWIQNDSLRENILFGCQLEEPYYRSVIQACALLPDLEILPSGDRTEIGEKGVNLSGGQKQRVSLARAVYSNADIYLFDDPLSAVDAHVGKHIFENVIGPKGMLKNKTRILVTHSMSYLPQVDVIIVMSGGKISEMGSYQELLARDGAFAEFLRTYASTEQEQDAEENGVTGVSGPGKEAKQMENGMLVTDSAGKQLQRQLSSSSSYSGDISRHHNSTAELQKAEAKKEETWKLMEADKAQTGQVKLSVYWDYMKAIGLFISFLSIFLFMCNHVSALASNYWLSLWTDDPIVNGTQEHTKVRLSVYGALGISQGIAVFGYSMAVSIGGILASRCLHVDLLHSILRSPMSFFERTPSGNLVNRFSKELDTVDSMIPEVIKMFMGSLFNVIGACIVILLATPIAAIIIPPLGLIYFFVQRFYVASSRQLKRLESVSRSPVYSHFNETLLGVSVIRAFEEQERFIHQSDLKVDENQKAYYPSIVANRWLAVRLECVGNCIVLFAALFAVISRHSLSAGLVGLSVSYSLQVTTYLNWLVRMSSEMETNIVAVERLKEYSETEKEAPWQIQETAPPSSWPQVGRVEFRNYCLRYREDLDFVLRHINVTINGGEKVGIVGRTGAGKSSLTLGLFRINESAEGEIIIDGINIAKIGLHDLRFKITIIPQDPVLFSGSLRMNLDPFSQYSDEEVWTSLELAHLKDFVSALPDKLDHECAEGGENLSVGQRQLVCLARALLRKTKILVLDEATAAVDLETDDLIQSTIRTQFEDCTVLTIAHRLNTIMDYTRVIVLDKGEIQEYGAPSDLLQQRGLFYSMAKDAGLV", "assay": "TP_TRANSPORTER: inhibition of CFDA efflux (CFDA: 1 uM, DHT: 5-50 uM) in HL60/Adr cells", "format": "functional, cell-based"}, "[2]": {"biological_target": "Multidrug resistance-associated protein 1 (MRP1) (Homo sapiens, UniProt P33527)", "sequence (P33527 whole entry)": "as above", "assay": "TP_TRANSPORTER: inhibition of CFDA efflux (CFDA: 1 uM, Genistein: 10 mM) in HL60/Adr cells", "format": "functional, cell-based", "conditions": "probe CFDA, read-out: Activity"}},
  "data": [
    {"smiles": "C=C(CC[C@H](O)[C@@]1(C)CC[C@H](C(C)(C)O)O1)[C@H]1CC[C@H]2O[C@@H]([C@]3(C)CC[C@@H](Br)C(C)(C)O3)CC[C@]2(C)O1", "note": "[DEHYDROTHYRSIFEROL]", "values": [
      {"measurement": "Activity", "setting": "[1]", "value": "is not an inhibitor [-]"}
    ]},
    {"smiles": "O=c1c(-c2ccc(O)cc2)coc2cc(O)cc(O)c12", "note": "[GENISTEIN]", "values": [
      {"measurement": "inhibition at 10 mM", "setting": "[2]", "value": 94.6, "unit": "%"}
    ]}
  ]
}
